Assay results taken from patent US20050080113A1, “Medicinal compositions” (priority 2001, published 2005).

Row | SMILES | melting point [°C]
1 | CSc1ccc(-c2nc(-c3cccc(C)c3)c(-c3ccnc(NCc4ccc5ccccc5c4)c3)s2)cc1 [D 19-20, N-[4 [4 (3 methylphenyl)-2 (4 methylthiophenyl)-1,3 thiazol-5 yl]-2 pyridyl]-N-(2-naphthylmethyl)amine] | 144 to 145
2 | Cc1cccc(-c2nc(-c3ccc(S(C)(=O)=O)cc3)sc2-c2ccnc(NC(=O)c3cccs3)c2)c1 [D 21-3, N-[4 [4 (3 methylphenyl)-2-(4 methylsulfonylphenyl)-1,3 thiazol-5 yl]-2 pyridyl]-2-thiophenecarboxamide] | 199 to 201
3 | Cc1cccc(-c2nc(-c3ccc(S(C)(=O)=O)cc3)sc2-c2ccnc(NC(=O)c3ccc4ccccc4c3)c2)c1 [D 21-4, N-[4 [4 (3 methylphenyl)-2-(4 methylsulfonylphenyl)-1,3 thiazol-5 yl]-2 pyridyl]-2-naphthamide] | 231 to 233
4 | Cc1cccc(-c2nc(-c3ccc(S(C)(=O)=O)cc3)sc2-c2ccnc(NCCCc3ccccc3)c2)c1 [D 21-6, N-[4-[4-(3-methylphenyl)-2-(4-methylsulfonylphenyl)-1,3-thiazol-5-yl]-2-pyridyl]-N-(3-phenylpropyl)amine] | 167 to 168
5 | Cc1cccc(-c2nc(-c3ccc(S(C)(=O)=O)cc3)sc2-c2ccnc(NCc3ccc4ccccc4c3)c2)c1 [D 21-7, N-[4 [4 (3 methylphenyl)-2-(4 methylsulfonylphenyl)-1,3 thiazol-5 yl]-2 pyridyl]-N-(2-naphthylmethyl)amine] | 167 to 168
6 | Cc1cccc(-c2nc(-c3ccc(S(C)(=O)=O)cc3)sc2-c2ccnc(N(C)CCc3ccccc3)c2)c1 [D 25-4, N-methyl-N-[4 [4 (3-methylphenyl)-2 (4 methylsulfonylphenyl)-1,3 thiazol-5 yl]-2 pyridyl]-N-(2 phenylethyl)amine] | 116 to 117
7 | Cc1cccc(-c2nc(-c3ccc(S(C)(=O)=O)cc3)sc2-c2ccnc(NCc3cccs3)c2)c1 [D 25-5, N-[4 [4 (3 methylphenyl)-2-(4 methylsulfonylphenyl)-1,3 thiazol-5 yl]-2 pyridyl]-N-(2-thienylmethyl)amine] | 107 to 109
8 | Cc1cccc(-c2nc(-c3ccc(S(C)(=O)=O)cc3)sc2-c2ccnc(SCc3ccccc3)c2)c1 [D 27, 5 (2 benzylthio-4 pyridyl)-4 (3-methylphenyl)-2 (4 methylsulfonylphenyl)-1,3 thiazole] | 182 to 185
9 | COc1ccc(-c2nc(N)sc2-c2ccnc(N)c2)cc1 [H 1, [5 (2 amino-4 pyridyl)-4 (4 methoxyphenyl)-1,3 thiazol-2-yl]amine] | 251 to 254
10 | Nc1nc(-c2ccc(F)cc2)c(-c2ccnc(F)c2)s1 [H 7-3, [4 (4 fluorophenyl)-5 (2-fluoro-4 pyridyl)-1,3 thiazol-2 yl]amine] | 243 to 245
11 | Cc1cccc(-c2nc(N)sc2-c2ccnc(C)c2)c1 [H 7-4, [4-(3-methylphenyl)-5-(2-methyl-4-pyridyl)-1,3-thiazol-2-yl]amine] | 205 to 206
12 | Cc1cc(C)cc(-c2nc(N)sc2-c2ccnc(C)c2)c1 [H 7-5, [4 (3,5 dimethylphenyl)-5-(2 methyl-4 pyridyl)-1,3 thiazol-2 yl]amine] | 219 to 220
13 | Cc1cccc(N2C=C(c3cc(C)nc(C)c3)SC2N)c1 (stereo not drawn) [H 7-6, [5 (2,6 dimethyl-4-pyridyl)-3 (3 methylphenyl)-1,3 thiazol-2 yl]amine] | 214 to 216
14 | Cc1cc(C)cc(-c2nc(N)sc2-c2cc(C)nc(C)c2)c1 [H 7-7, [4 (3,5 dimethylphenyl)-5-(2,6 dimethyl-4 pyridyl)-1,3 thiazol-2 yl]amine] | 256 to 258
15 | Cc1cc(-c2sc(N)nc2-c2ccc(F)cc2)ccn1 [H 7-8, [4 (4 fluorophenyl)-5 (2-methyl-4 pyridyl)-1,3 thiazol-2 yl]amine] | 233 to 234
16 | Cc1cccc(-c2nc(-c3ccccc3Cl)sc2-c2ccnc(C)c2)c1 [H 14-1, 2 (2 chlorophenyl)-4 (3-methylphenyl)-5 (2 methyl-4 pyridyl)-1,3 thiazole] | 83 to 84
17 | Cc1cccc(-c2nc(-c3ccc(Cl)cc3)sc2-c2ccnc(C)c2)c1 [H 14-2, 2 (4 chlorophenyl)-4 (3-methylphenyl)-5 (2 methyl-4 pyridyl)-1,3 thiazole] | 104 to 105
18 | Cc1cccc(-c2nc(-c3ccccc3F)sc2-c2ccnc(C)c2)c1 [H 14-3, 2 (2 fluorophenyl)-4 (3-methylphenyl)-5 (2 methyl-4 pyridyl)-1,3 thiazole] | 73 to 74
19 | Cc1cccc(-c2nc(-c3ccc(F)cc3)sc2-c2ccnc(C)c2)c1 [H 14-4, 2 (4 fluorophenyl)-4 (3-methylphenyl)-5 (2 methyl-4 pyridyl)-1,3 thiazole] | 89 to 91
20 | Cc1cccc(-c2nc(-c3ccc(F)cc3F)sc2-c2ccnc(C)c2)c1 [H 14-5, 2 (2,4 difluorophenyl)-4-(3 methylphenyl)-5 (2 methyl-4 pyridyl)-1,3 thiazole] | 90 to 91
21 | Cc1cccc(-c2nc(-c3ccccc3)sc2-c2ccnc(C)c2)c1 [H 14-6, 4 (3 methylphenyl)-5 (2-methyl-4 pyridyl)-2 phenyl-1,3 thiazole] | 79 to 80
22 | Cc1cccc(-c2nc(Cc3ccccc3)sc2-c2ccnc(C)c2)c1 [H 14-7, 4 (3 methylphenyl)-5 (2-methyl-4 pyridyl)-2 (phenylmethyl)-1,3 thiazole] | 82 to 84
23 | Cc1cccc(-c2nc(CCc3ccccc3)sc2-c2ccnc(C)c2)c1 [H 14-8, 4 (3 methylphenyl)-5 (2-methyl-4 pyridyl)-2 (2 phenylethyl)-1,3 thiazole] | 64 to 65
24 | CCOC(=O)c1nc(-c2cccc(C)c2)c(-c2ccnc(C)c2)s1 [H 14-12, ethyl [4 (3-methylphenyl)-5 (2 methyl-4 pyridyl)-1,3 thiazol-2-yl]carboxylate] | 97 to 98
25 | Cc1cccc(-c2nc(N3CCN(C)CC3)sc2-c2ccnc(C)c2)c1 [H 14-13, 4 (3 methylphenyl)-2 (4-methylpiperazin-1 yl)-5 (2 methyl-4 pyridyl)-1,3 thiazole] | 115 to 116
26 | CSc1ccc(-c2nc(-c3cccc(C)c3)c(-c3ccnc(F)c3)s2)cc1 [H 15, 5-(2-fluoro-4-pyridyl)-4-(3-methylphenyl)-2-[4-(methylthio)phenyl]-1,3-thiazole] | 97 to 100
27 | Cc1cccc(-c2nc(-c3ccc(F)cc3)sc2-c2ccnc(N)c2)c1 [H 18-1, 4 [2 (4 fluorophenyl)-4-(3 methylphenyl)-1,3 thiazol-5 yl]-2 pyridylamine] | 160 to 162
28 | Cc1cccc(-c2nc(CC(F)(F)F)sc2-c2ccnc(N)c2)c1 [H 18-3, 4 [4 (3 methylphenyl)-2-(2,2,2 trifluoroethyl)-1,3 thiazol-5 yl]-2 pyridylamine] | 131 to 132
29 | CCCc1nc(-c2cccc(C)c2)c(-c2ccnc(N)c2)s1 [H 18-4, 4 [4 (3 methylphenyl)-2-propyl-1,3 thiazol-5 yl]-2 pyridylamine] | 113 to 115
30 | CCOC(=O)Cc1nc(-c2cccc(C)c2)c(-c2ccnc(N)c2)s1 [H 18-5, Ethyl [5 (2 amino-4-pyridyl)-4 (3 methylphenyl)-1,3 thiazol-2 yl]acetate] | 128 to 129
